PubChem BioAssay AID1963847 (Molecular Pharmacology Branch, DTP, NCI, 2024)
Values joined by “and” are separate entries in the source; they are usually repeats but may differ in a detail not shown here. Equal entries are not always repeated.

Tested on: 415267-285-R-J2-PDC complex spheroid viability
Test: Anticancer human tumor 415267-285-R-J2-PDC patient-derived breast carcinoma cell line growth inhibition [POLQ]
Conditions: for viability, T/C: stronger effect = lower value
Method: Multicellular complex tumor spheroid response to Polymerase (POL) inhibitors (novobiocin, ART-558, RP6685) in combination with a variety of drugs and investigational agents in selected tumor cell lines
The POL inhibitors (novobiocin, ART-558, and RP6685) were evaluated both individually and in combination with standard of care and investigational anticancer small molecules within a complex spheroid model of solid tumors. . Complex spheroids include a stromal component modeled by human endothelial cells (HUVEC) and fibroblasts modeled by human mesenchymal stem cells (MSCs). The concentration ranges selected for each drug and investigational agent were based upon clinically achievable concentrations if the clinical Cmax of the agent was known.
Compounds. The drugs and investigational agents: novobiocin (NSC847541), ART-558 (NSC835418), RP-6685 (NSC848927), peposertib (NSC802822), ceralasertib (NSC780249), elimusertib (NSC800525), camonsertib (NSC841442), AZD-1390 (NSC803789), olaparib (NSC753686), talazoparib (NSC767125), rucaparib (NSC756644), sotorasib (NSC818433), MRTX-1133 (NSC836407), SN-38 (NSC673596), topotecan (NSC609699), epotoside (NSC141540), doxorubicin (NSC123127), gemcitabine (NSC613327), 5-fluorouracil (NSC19893), paclitaxel (NSC125973), vemurafenib (NSC761431), MSA-2 (NSC828583), SN-011 (NSC837082), adavosertib (NSC754352), prexasertib (NSC758257), carboplatin (NSC241240) and oxaliplatin (NSC266046), were obtained from the National Cancer Institute (NCI) Developmental Therapeutics Program Chemical Repository (21). The FDA-approved anticancer drug set is available from the Developmental Therapeutics Program at https://dtp.cancer.gov/organization/dscb/obtaining/. […] The stock solutions were prepared in dimethyl sulfoxide (DMSO, Sigma-Aldrich, St. Louis, MO, cat. D2650), except for the platinum compounds which were prepared in saline (Quality Biological, Gaithersburg, MD, cat. 114-055-101), at 800-fold the tested concentration and stored at -70 degrees C prior to their use. All drugs and investigational agents were tested over a range starting from a high concentration at or near the clinical Cmax and decreasing in half-log increments. If the clinical Cmax for an agent had not been determined, the highest concentration tested was 10 microM, except for SN-38, which was tested at a high concentration of 1 microM.
Cell Culture. All cells were maintained in an incubator at 37 degrees C and 5% CO2 with 95% humidity. The PDC lines were cultured according to standard operating procedures established by the NCI PDMR (https://pdmr.cancer.gov). Table 3 of the manuscript, lists the cell lines along with the number of the three cell types plated to form the mct-spheroids and media for tumor cell growth. After thawing, all PDC lines, except 997537-175-T-J1-PDC and 415267-285-R-J2-PDC, were cultured in Matrigel-coated flasks prepared with a working solution of 1X Ham's F-12 nutrient mix, without supplementation (Thermo Fisher Scientific, cat. 11765054), 100 U/mL penicillin-streptomycin (Thermo Fisher Scientific, cat. 15140122), and 2.5% Matrigel (Corning Inc., Corning, NY, cat. 354248) for the first three passages. The two PDC lines 997537-175-T-J1-PDC and 415267-285-R-J2-PDC were cultured on uncoated flasks. The 857933-349-R-J2-PDC line was cultured in 6C/Colon 1B media containing advanced DMEM/F-12 (Thermo Fisher Scientific, cat. 12634028), 10 mM HEPES (Thermo Fisher Scientific, cat. 15630080), 1X GlutaMAX supplement (Thermo Fisher Scientific, cat. 35050061), 0.1 mg/mL primocin (InvivoGen, San Diego, CA, cat. ant-pm-2), 10% defined fetal bovine serum, heat inactivated (HyClone Laboratories Inc., Logan, UT, cat. SH30070.03HI), 50% L-WRN conditioned media (ATCC, cat. CRL-3276), 1.25 mM N-Acetyl-L-cysteine (Sigma-Aldrich, cat. A9165), 10 mM nicotinamide (Sigma-Aldrich, cat. N0636), 1X B-27 supplement (Thermo Fisher Scientific, cat. 17504044), 1X N-2 supplement (Thermo Fisher Scientific, cat. […]
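Further: spheroids exposed to compounds for one week before readout.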
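Wherever viability, T/C is given: luminescence used as stand-in measure of viable cells; 100% = DMSO vehicle control viability.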

SMILES: Nc1ccn(C2OC(CO)C(O)C2(F)F)c(=O)n1 (stereo not given) + Nc1ccc(C#CCN(C(=O)Cc2ncc(C(F)(F)F)cc2C(F)(F)F)c2ccc(F)cc2)nn1
- IC50 (curve of first compound, second compound 0.0316 µM): < 31.6 nM
- IC50 (curve of first compound, second compound 0.1 µM): < 31.6 nM
- IC50 (curve of first compound, second compound 0.316 µM): < 31.6 nM
- IC50 (curve of first compound, second compound 1 µM): < 31.6 nM
- IC50 (curve of first compound, second compound 3.16 µM): < 31.6 nM
- IC50 (curve of first compound, second compound 10 µM): < 31.6 nM
- viability, T/C (second compound 0.0316 µM, first compound 0.0316 µM): 31.7%
- viability, T/C (second compound 0.0316 µM, first compound 0.1 µM): 6.95%
- viability, T/C (second compound 0.0316 µM, first compound 0.316 µM): 5.45%
- viability, T/C (second compound 0.0316 µM, first compound 1 µM): 4.21%
- viability, T/C (second compound 0.0316 µM, first compound 3.16 µM): 5.5%
- viability, T/C (second compound 0.0316 µM, first compound 10 µM): 4.63%
- viability, T/C (second compound 0.1 µM, first compound 0.0316 µM): 33.3%
- viability, T/C (second compound 0.1 µM, first compound 0.1 µM): 7.84%
- viability, T/C (second compound 0.1 µM, first compound 0.316 µM): 5.21%
- viability, T/C (second compound 0.1 µM, first compound 1 µM): 4.26%
- viability, T/C (second compound 0.1 µM, first compound 3.16 µM): 4.99%
- viability, T/C (second compound 0.1 µM, first compound 10 µM): 4.24%
- viability, T/C (second compound 0.316 µM, first compound 0.0316 µM): 42.2%
- viability, T/C (second compound 0.316 µM, first compound 0.1 µM): 6.2%
- viability, T/C (second compound 0.316 µM, first compound 0.316 µM): 4.82%
- viability, T/C (second compound 0.316 µM, first compound 1 µM): 3.94%
- viability, T/C (second compound 0.316 µM, first compound 3.16 µM): 6.45%
- viability, T/C (second compound 0.316 µM, first compound 10 µM): 4.74%
- viability, T/C (second compound 1 µM, first compound 0.0316 µM): 25.8%
- viability, T/C (second compound 1 µM, first compound 0.1 µM): 6.29%
- viability, T/C (second compound 1 µM, first compound 0.316 µM): 5.24%
- viability, T/C (second compound 1 µM, first compound 1 µM): 5.68%
- viability, T/C (second compound 1 µM, first compound 3.16 µM): 5.32%
- viability, T/C (second compound 1 µM, first compound 10 µM): 5.07%
- viability, T/C (second compound 3.16 µM, first compound 0.0316 µM): 17.7%
- viability, T/C (second compound 3.16 µM, first compound 0.1 µM): 6.56%
- viability, T/C (second compound 3.16 µM, first compound 0.316 µM): 5.45%
- viability, T/C (second compound 3.16 µM, first compound 1 µM): 5.13%
- viability, T/C (second compound 3.16 µM, first compound 3.16 µM): 5.35%
- viability, T/C (second compound 3.16 µM, first compound 10 µM): 5.11%
- viability, T/C (second compound 10 µM, first compound 0.0316 µM): 14.4%
- viability, T/C (second compound 10 µM, first compound 0.1 µM): 6.3%
- viability, T/C (second compound 10 µM, first compound 0.316 µM): 5.2%
- viability, T/C (second compound 10 µM, first compound 1 µM): 4.36%
- viability, T/C (second compound 10 µM, first compound 3.16 µM): 4.56%
- viability, T/C (second compound 10 µM, first compound 10 µM): 4.89%

SMILES: O=C(Nc1ccc(O)c(NS(=O)(=O)c2ccc(F)cc2)c1)c1ccc(-c2ccccc2)cc1
- viability, T/C (compound 0.0316 µM): 111% and 102% and 103%
- viability, T/C (compound 0.1 µM): 108% and 97.2% and 98.4%
- viability, T/C (compound 0.316 µM): 107% and 98.6% and 103%
- viability, T/C (compound 1 µM): 92.3% and 107% and 105%
- viability, T/C (compound 3.16 µM): 109% and 101% and 98.1%
- viability, T/C (compound 10 µM): 68.7% and 71.7% and 46.8%
- IC50 (curve of compound): > 10000 nM and 9320 nM

SMILES: CC1COCCN1c1cc(C2(S(C)(=N)=O)CC2)nc(-c2ccnc3[nH]ccc23)n1 (stereo not given)
- viability, T/C (compound 0.0316 µM): 96.2% and 107% and 97.5%
- viability, T/C (compound 0.1 µM): 93.1% and 103% and 94.9%
- viability, T/C (compound 0.316 µM): 69.9% and 86.8% and 66.4%
- viability, T/C (compound 1 µM): 12.1% and 15.8% and 13%
- viability, T/C (compound 3.16 µM): 7.35% and 7.07% and 7.38%
- viability, T/C (compound 10 µM): 5.4% and 3.22% and 5.26%
- IC50 (curve of compound): 470 nM and 575 nM and 450 nM

SMILES: CNCc1ccc(-c2[nH]c3cc(F)cc4c3c2CCNC4=O)cc1
- viability, T/C (compound 0.0316 µM): 107% and 95.9% and 101%
- viability, T/C (compound 0.1 µM): 109% and 115% and 101%
- viability, T/C (compound 0.316 µM): 96.2% and 94.8% and 102%
- viability, T/C (compound 1 µM): 94.9% and 105% and 102%
- viability, T/C (compound 3.16 µM): 108% and 96% and 106%
- viability, T/C (compound 10 µM): 103% and 98.2% and 107%
- IC50 (curve of compound): > 10000 nM

SMILES: CC[C@@]1(O)C(=O)OCc2c1cc1n(c2=O)Cc2cc3c(CN(C)C)c(O)ccc3nc2-1
- viability, T/C (compound 0.000316 µM): 95.8% and 95.3% and 99.4%
- viability, T/C (compound 0.001 µM): 113% and 97% and 101%
- viability, T/C (compound 0.00316 µM): 103% and 108% and 98.3%
- viability, T/C (compound 0.01 µM): 90.7% and 108% and 86.8%
- viability, T/C (compound 0.0316 µM): 25.3% and 37.5% and 22.8%
- viability, T/C (compound 0.1 µM): 7.48% and 7.95% and 7.34%
- IC50 (curve of compound): 20.5 nM and 25.3 nM and 19.4 nM
